One assay addresses T1, ULK1 kinase (Homo sapiens, UniProt O75385, E37A/K38A).
T1 construct: purchased Beryllium
T1 sequence (O75385 1-283 E37A/K38A): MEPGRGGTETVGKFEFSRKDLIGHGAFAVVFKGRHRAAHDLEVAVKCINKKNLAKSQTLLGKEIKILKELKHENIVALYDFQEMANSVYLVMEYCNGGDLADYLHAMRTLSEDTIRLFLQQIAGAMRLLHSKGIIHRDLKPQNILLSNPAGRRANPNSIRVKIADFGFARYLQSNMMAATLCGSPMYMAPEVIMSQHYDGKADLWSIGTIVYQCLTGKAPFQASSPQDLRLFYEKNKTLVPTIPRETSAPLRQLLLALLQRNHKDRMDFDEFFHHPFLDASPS
In words: Biochemical assay for ULK1.3 (coupled pyruvate kinase/lactate dehydrogenase assay, peptide substrate). As to conditions: 0.1 nM ULK1 (residues 1-283), 1 mM ATP. The method, then: Biochemical Assay for ULK1.3 (SEQ. ID NO: 2)
Inhibition of ULK1 was measured by adding serial diluted test compound (final assay concentration of 1% DMSO). A decrease in absorption at 340 nm was monitored continuously for 6 hours at 30° C. on a multi-mode microplate reader (BioTek). The reaction rate was calculated using the 2-3 h time frame. The reaction rate at each concentration of compound was converted to percent inhibition using controls (i.e. reaction with no test compound and reaction with a known inhibitor) and IC50 values were calculated using software routines in Prism (GraphPad software).

In the next assay the target is T2, LRRK2 kinase (Homo sapiens, UniProt Q5S007).
T2 construct: purchased Thermo Fisher
T2 sequence (Q5S007 with tags, fused parts or gaps): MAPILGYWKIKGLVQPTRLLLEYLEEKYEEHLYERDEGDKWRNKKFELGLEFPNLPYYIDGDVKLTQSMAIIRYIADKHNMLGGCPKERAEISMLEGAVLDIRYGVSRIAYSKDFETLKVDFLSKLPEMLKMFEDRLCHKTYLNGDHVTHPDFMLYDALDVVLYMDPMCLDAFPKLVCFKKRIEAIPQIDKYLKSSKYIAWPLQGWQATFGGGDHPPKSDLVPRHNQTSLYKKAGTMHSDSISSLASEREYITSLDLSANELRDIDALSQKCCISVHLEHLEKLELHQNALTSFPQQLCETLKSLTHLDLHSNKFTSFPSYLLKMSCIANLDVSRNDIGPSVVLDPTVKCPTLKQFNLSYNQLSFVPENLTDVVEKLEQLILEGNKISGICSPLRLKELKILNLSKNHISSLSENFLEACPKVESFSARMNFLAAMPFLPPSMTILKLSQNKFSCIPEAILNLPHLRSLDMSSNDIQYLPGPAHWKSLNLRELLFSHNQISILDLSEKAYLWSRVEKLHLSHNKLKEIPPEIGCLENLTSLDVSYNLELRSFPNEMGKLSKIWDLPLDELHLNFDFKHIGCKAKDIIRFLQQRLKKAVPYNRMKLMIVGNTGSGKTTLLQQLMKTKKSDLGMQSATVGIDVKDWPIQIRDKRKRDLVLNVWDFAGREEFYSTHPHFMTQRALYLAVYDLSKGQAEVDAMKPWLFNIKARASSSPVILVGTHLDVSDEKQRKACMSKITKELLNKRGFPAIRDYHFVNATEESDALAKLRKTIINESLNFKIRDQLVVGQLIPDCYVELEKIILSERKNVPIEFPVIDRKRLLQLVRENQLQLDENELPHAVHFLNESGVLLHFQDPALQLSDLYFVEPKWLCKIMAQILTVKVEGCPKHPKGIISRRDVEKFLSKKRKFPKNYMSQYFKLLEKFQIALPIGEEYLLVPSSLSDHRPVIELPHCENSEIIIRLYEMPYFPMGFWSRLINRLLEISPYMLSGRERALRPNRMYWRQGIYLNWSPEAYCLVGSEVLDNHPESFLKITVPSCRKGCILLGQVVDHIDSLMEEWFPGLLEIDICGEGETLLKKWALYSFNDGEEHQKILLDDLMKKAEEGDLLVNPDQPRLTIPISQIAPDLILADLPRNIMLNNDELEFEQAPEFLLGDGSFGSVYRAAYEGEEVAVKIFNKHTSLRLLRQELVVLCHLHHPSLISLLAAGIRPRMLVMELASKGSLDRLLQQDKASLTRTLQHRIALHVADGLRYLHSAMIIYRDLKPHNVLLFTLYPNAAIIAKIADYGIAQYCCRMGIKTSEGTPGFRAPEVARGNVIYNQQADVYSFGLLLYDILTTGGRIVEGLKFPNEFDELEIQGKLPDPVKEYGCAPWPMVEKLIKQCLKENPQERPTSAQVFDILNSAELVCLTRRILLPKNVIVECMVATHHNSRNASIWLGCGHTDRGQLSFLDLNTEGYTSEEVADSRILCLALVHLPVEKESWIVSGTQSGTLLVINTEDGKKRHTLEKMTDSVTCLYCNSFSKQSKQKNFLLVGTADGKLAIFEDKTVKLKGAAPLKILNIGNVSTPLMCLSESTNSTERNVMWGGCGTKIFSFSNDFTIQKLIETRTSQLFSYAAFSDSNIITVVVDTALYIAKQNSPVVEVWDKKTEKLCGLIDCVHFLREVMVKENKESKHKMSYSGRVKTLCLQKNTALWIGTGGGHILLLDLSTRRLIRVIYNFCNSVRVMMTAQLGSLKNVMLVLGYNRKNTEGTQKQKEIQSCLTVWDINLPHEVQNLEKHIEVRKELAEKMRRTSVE
In words: Biochemical assay for LRRK2 (coupled pyruvate kinase/lactate dehydrogenase assay). The following applies: 26.4 nM LRRK2 (residues 970-2528), peptide substrate, 1 mM ATP. The method, then:
Example 138. Biochemical Assay for LRRK2 (SEQ. ID NO: 4)
Activity of LRRK2 kinase was determined spectroscopically using a coupled pyruvate kinase/lactate dehydrogenase assay that continuously monitors the ATP hydrolysis-dependent oxidation of NADH (e.g., Schindler et al. Science (2000) 289: 1938-1942). Assays were conducted in 384-well plates (100 μL final volume) using 26.4 nM LRRK2 (Thermo Fisher), 0.1 mM peptide substrate ([…] (SEQ ID NO: 6)), 1.5 units pyruvate kinase, 2.1 units lactate dehydrogenase, 1 mM phosphoenol pyruvate, 0.28 mM NADH and 1 mM ATP in assay buffer (100 mM Tris, pH 7.5, 15 mM MgCl2, 0.5 mM DTT, 0.004% (w/v) BSA, and 0.004% Triton X-100). Inhibition of LRRK2 was measured by adding serial diluted test compound (final assay concentration of 1% DMSO). A decrease in absorption at 340 nm was monitored continuously for 6 hours at 30° C. on a multi-mode microplate reader (BioTek). The reaction rate was calculated using the 2-3 h time frame. The reaction rate at each concentration of compound was converted to percent inhibition using controls (i.e. reaction with no test compound and reaction with a known inhibitor) and IC50 values were calculated using software routines in Prism (GraphPad software).

The subject of assay [1] is ULK kinase. In words: pATG13 levels of mutant KRas A549 cells after treatment with ULK inhibitors in combination with trametinib (ELISA). The class given is cell-based, human. The following applies: A549 (KRAS mutant) lung cancer cells, 250 nM trametinib, overnight, pS318-ATG13. The method, then: Cellular Inhibition of ULK Kinase Substrate ATG13 Protein pATG13 Levels of Mutant KRas A549 Cells after Treatment with ULK Inhibitors in Combination with Trametinib
(§1) A549 (KRAS mutant) human lung cancer cells (6,000 cells/well) were added to a 384-well tissue-culture treated plate in 50 μL of pre-warmed DMEM medium supplemented with 10% characterized fetal bovine serum (Invitrogen, Carlsbad, Calif.), 100 units/mL penicillin G, and 100 μg/mL streptomycin and allowed to grow overnight at 37° C., 5% CO2, and 95% humidity. The following day, 10 μL of media containing trametinib or DMSO as a control was added to wells. […] A dose response of a test compound (0.6 μL per well) was added. DMSO (0.6 μL) was added to control wells. The plate was briefly shaken to mix wells and then incubated at 37° C. overnight. The next day, the media was aspirated and cells were washed with Dulbecco's Phosphate Buffered Saline (Gibco). Cells were lysed using MPER lysis buffer (Pierce, Rockford, Ill.) containing Halt Phosphatase and Protease Inhibitors (Pierce, Rockford, Ill.) and Phosphatase inhibitor cocktail 2 (Sigma, St. Louis, Mo.) at 4° C. for 10 minutes with shaking.
(§2) Plate wells were washed with ELISA wash buffer. Cell lysate was added to wells and incubated at room temperature for 2 hours. Plate wells were washed with ELISA wash buffer. […] Plate wells were washed with ELISA wash buffer. […] Plate wells were washed with ELISA wash buffer. […] The reaction was stopped with 2N Sulfuric Acid. The plate was analyzed at on a plate reader measuring absorbance at 450 nm and 540 nm (background). Signal was calculated by first subtracting the background absorbance at 540 nm from the absorbance at 450 nm for each well. Next, the background corrected absorbance at 450 nm from blank wells was subtracted from test wells. Data was compared to control wells to determine % ATG13 phosphorylation. GraphPad Prism was used to calculate IC50 values.
(In an ELISA, binding on a coated surface is turned into a signal by an enzyme label.)

Assay [2] has as its system ULK kinase. In words: pATG13 levels of mutant KRas MiaPaCa-2 cells after treatment with ULK inhibitors in combination with trametinib (ELISA). Format: cell-based, human. As to conditions: MiaPaCa-2 pancreatic cancer cells, 250 nM trametinib, overnight, pS318-ATG13. The method, then: as §1, with “MiaPaCa-2” for “A549 (KRAS mutant)”, “pancreatic” for “lung”, “(10000” for “(6,000”, “G, 100 µg/mL streptomycin,” for “G,”, “2.5% Horse Serum” for “100 μg/mL streptomycin”
as §2

What is called pIC50 is the negative decadic logarithm of the IC50, by convention in mol/L.

Each structure is given as a SMILES string. pIC50: −log10 of the molar value.

With `CCc1cc(N2CCN(C)CC2)ccc1Nc1ncc(C2CC2)c(NCCCN2CCCOCC2=O)n1` [Example 61], the pIC50 on ULK1 kinase was below 6.30; against LRRK2 kinase, below 6.22.

Turning to `CCc1cc(N2CC[C@H](C#N)C2)ccc1Nc1ncc(C(F)(F)F)c(NCCCN2CCCCC2=O)n1` [Example 48], the figures for the pIC50 at ULK1 kinase and at LRRK2 kinase were 6.30 to 7.00 and 6.52 to 7.00, respectively.

For `CCc1cc(N2CCN(C)C(=O)C2)ccc1Nc1ncc(C(F)(F)F)c(NCCCN2CCCOC2=O)n1` [Example 114], the pIC50 against ULK1 kinase is 7.00 to 7.60; at LRRK2 kinase it was 7.00 to 9.00.

For the compound `CCc1cc(N2C[C@H]3C[C@@H]2CN3C)ccc1Nc1ncc(C(F)(F)F)c(NCCCN2CCCOC2=O)n1` [Example 123], the pIC50 in the assay with ULK kinase [1] was 7.00 to 8.00; at ULK1 kinase, 7.60 to 9.00; at LRRK2 kinase, 6.52 to 7.00.

Consider `CCc1cc(N2CCN(C)CC2=O)ccc1Nc1ncc(C(F)(F)F)c(NCCCN2CCCOC2=O)n1` [Example 56], for which the values for the pIC50 on ULK1 kinase and against LRRK2 kinase were 7.00 to 7.60 and 6.52 to 7.00, respectively.

Turning to `CN1CCN(c2ccc(Nc3ncc(C(F)(F)F)c(NCCCN4CCCCC4=O)n3)c(C3CCCC3)c2)CC1` [Example 113], the pIC50 at ULK1 kinase is 7.60 to 9.00; at LRRK2 kinase, 6.52 to 7.00.

As to `CN(C)C1CN(c2ccc(Nc3ncc(Br)c(NCCCN4CCCCC4=O)n3)c(C3CC3)c2)C1` [Example 118], the pIC50 at ULK1 kinase was 7.00 to 7.60; against LRRK2 kinase, 7.00 to 9.00.

Turning to `CC(=O)N1CCN(c2ccc(Nc3ncc(C(F)(F)F)c(NCCCN4CCCCC4=O)n3)c(C3CC3)c2)CC1` [Example 36, 1-(3-((2-((4-(4-acetylpiperazin-1-yl)-2-cyclopropylphenyl)amino)-5-(trifluoromethyl)pyrimidin-4-yl)amino)propyl)piperidin-2-one], the results for the pIC50 with ULK kinase [2], in the assay with ULK kinase [1] and at ULK1 kinase were below 6.22, below 6.22 and 7.00 to 7.60, respectively.

Regarding `CN1CCN(c2ccc(Nc3ncc(Cl)c(NCCCN4CCOCCC4=O)n3)c(C3CC3)c2)CC1` [Example 82], the values for the pIC50 with ULK kinase [2], in the assay on ULK kinase [1] and on ULK1 kinase were 6.52 to 7.00, 6.52 to 7.00 and 7.00 to 7.60, respectively.

With `CN(C)CC1CN(c2ccc(Nc3ncc(C(F)(F)F)c(NCCCN4CCOCCC4=O)n3)c(C3CC3)c2)C1` [Example 137], the pIC50 in the assay with ULK kinase [2] is 7.00 to 8.00; with ULK kinase [1] it was 6.52 to 7.00; against ULK1 kinase, 7.60 to 9.00.

As for `CCN1CCN(c2ccc(Nc3ncc(Br)c(NCCCN4CCCCC4=O)n3)c(C(C)C)c2)CC1` [Example 30], the pIC50 with ULK kinase [2] was 6.52 to 7.00; in the assay with ULK kinase [1], 6.22 to 6.52; against ULK1 kinase it was 7.00 to 7.60.

Regarding `CN1CCN(c2ccc(Nc3ncc(C(F)(F)F)c(NCCCN4CCCCC4=O)n3)c(C3CC3)c2)CC1=O` [Example 49], the pIC50 is 6.30 to 7.00 at ULK1 kinase and 6.52 to 7.00 on LRRK2 kinase.

`CN1CCN(c2ccc(Nc3ncc(Cl)c(NCCCN4CCCCC4=O)n3)c(C3CC3)c2)CC1` [Example 27]: the values for the pIC50 with ULK kinase [2], with ULK kinase [1] and on ULK1 kinase were 6.52 to 7.00, 6.52 to 7.00 and 7.00 to 7.60, respectively.

Turning to `CCc1cc(N2CCN(C)C(=O)C2)ccc1Nc1ncc(C(F)(F)F)c(NCCCN2CCOCCC2=O)n1` [Example 115], the figures for the pIC50 at ULK1 kinase and against LRRK2 kinase were 6.30 to 7.00 and 6.52 to 7.00, respectively.

Consider `CCc1cc(N2CC[C@@H](C#N)C2)ccc1Nc1ncc(C(F)(F)F)c(NCCCN2CCCCC2=O)n1` [Example 93], for which the figures for the pIC50 at ULK1 kinase and against LRRK2 kinase were 6.30 to 7.00 and 6.52 to 7.00, respectively.

Consider `CCc1cc(N2CC3CCC(C2)N3)ccc1Nc1ncc(C(F)(F)F)c(NCCCN2CCOCCC2=O)n1` [Example 150], for which the pIC50 with ULK kinase [2] was 7.00 to 8.00; with ULK kinase [1], 6.52 to 7.00; at ULK1 kinase it was 7.60 to 9.00.

`CN1CCN(c2ccc(Nc3ncc(C(F)(F)F)c(NCCCN4CCCOC4=O)n3)c(C3CCCC3)c2)CC1` [Example 111]: the figures for the pIC50 against ULK1 kinase and against LRRK2 kinase were 7.60 to 9.00 and 6.52 to 7.00, respectively.

In the case of `CCN1CCN(c2ccc(Nc3ncc(C(F)(F)F)c(NCCCN4CCCCC4=O)n3)c(C(C)C)c2)CC1` [Example 28], the pIC50 is 6.52 to 7.00 in the assay with ULK kinase [2], 6.52 to 7.00 with ULK kinase [1] and 7.60 to 9.00 against ULK1 kinase.

With `CN1C2CCC1CN(c1ccc(Nc3ncc(C(F)(F)F)c(NCCCN4CCCCC4=O)n3)c(C3CC3)c1)C2` [Example 130], the pIC50 with ULK kinase [2] was 6.22 to 6.52; with ULK kinase [1], 6.22 to 6.52; on ULK1 kinase, 7.00 to 7.60.

With `CC(C)c1cc(N2CCN(C)CC2)ccc1Nc1ncc(Cl)c(NCCCN2CCOCCC2=O)n1` [Example 88], the pIC50 was 6.52 to 7.00 with ULK kinase [2], 6.22 to 6.52 in the assay on ULK kinase [1] and 7.00 to 7.60 on ULK1 kinase.

Turning to `CN1CCN(c2ccc(Nc3cc(NCCCN4CCCOC4=O)c(C(F)(F)F)cn3)cc2)CC1` [Example 102], the results for the pIC50 in the assay with ULK kinase [2], in the assay with ULK kinase [1] and at ULK1 kinase were 6.52 to 7.00, 6.52 to 7.00 and 7.60 to 9.00, respectively.

Consider `CCc1cc(N2CCN(C)CC2)c(F)cc1Nc1ncc(C(F)(F)F)c(NCCCN2CCCOCC2=O)n1` [Example 64], for which the pIC50 at ULK1 kinase was 6.30 to 7.00; at LRRK2 kinase, 7.00 to 9.00.

On to `CN1CCN(c2ccc(Nc3ncc(Br)c(NCCCN4CCCOC4=O)n3)c(C3CC3)c2)CC1` [Example 40], for which the figures for the pIC50 in the assay on ULK kinase [2], in the assay on ULK kinase [1] and on ULK1 kinase were 7.00 to 8.00, 7.00 to 8.00 and 7.60 to 9.00, respectively.

On to `Cc1cc(N2C[C@H]3C[C@@H]2CO3)ccc1Nc1ncc(C(F)(F)F)c(NCCCN2CCOCCC2=O)n1` [Example 78], for which the figures for the pIC50 at ULK1 kinase and on LRRK2 kinase were 6.30 to 7.00 and 6.52 to 7.00, respectively.

On to `O=C1OCCCN1CCCNc1nc(Nc2ccc(N3CCN4CCC[C@@H]4C3)cc2C2CC2)ncc1C(F)(F)F` [Example 42], for which the values for the pIC50 with ULK kinase [2], in the assay on ULK kinase [1] and at ULK1 kinase were 7.00 to 8.00, 7.00 to 8.00 and 7.60 to 9.00, respectively.

Take `O=C1COCCCN1CCCNc1nc(Nc2ccc(N3CCNCC3)cc2C2CC2)ncc1C(F)(F)F` [Example 62]: the pIC50 in the assay with ULK kinase [2] was 7.00 to 8.00; in the assay with ULK kinase [1] it was 6.52 to 7.00; against ULK1 kinase, 7.60 to 9.00.

On to `CCc1cc(N2CCN(C)CC2)ccc1Nc1ncc(Br)c(NCCCN2CCCOCC2=O)n1` [Example 100], for which the pIC50 is 6.52 to 7.00 with ULK kinase [2], 6.52 to 7.00 in the assay on ULK kinase [1] and 7.00 to 7.60 on ULK1 kinase.
